# Laboratory results: article PMC9137037 (Frontiers in Oncology, 2022)
# Where no end group is shown, it is not given here.
# Assays:
# beagle dogs [1] = test: ELISA antibody titers in sera of immunized beagle dogs; assay type: in vivo, dog; conditions: for antibody titers in sera (words): beagle dogs, 1.0, 1.5, 3.0 mg with nor-MDP and ISA 720, ELISA
# Experimental: In brief, the beagle dogs were purchased from Covance Research Products (Cumberland, VA, USA) and were housed in the Ohio State University Veterinarian Facility Institutional Animal Care Facility. The dogs were housed at 19°C−24°C room temperature with approximately 70% humidity, and 12 h light and 12 h dark–light cycle. The dogs’ body weights were at least 7.5 kg when they received the first immunization. […] The dogs received a total of 4 doses, immunization was done at the rear thigh with two sites of injections, the bleed was collected as indicated time points to monitor the antibody titers, and the body weight of each dog was monitored closely (see Figures 3B, C for detail).
# Enzyme-linked immunosorbent assay (ELISA) was performed per our lab standard procedure. Briefly, a 96-well plate was coated with 100 μl of MVF-PD-1(92-110) peptide as an antigen at 2 μg/ml in phosphate-buffered saline (PBS; Research Products International, Mt Prospect, IL, USA, CAS No. 7647-145) overnight at 4°C. Nonspecific binding sites were blocked for 1 h with 200 μl of PBS with 1% BSA (bovine serum albumin; Thermo Fisher Scientific, Waltham, […], USA, BP9703-100), and the plate was washed with a washing buffer (PBS diluted 0.05% Tween 1% horse serum). […] After washing, the antibody was detected using 50 μl of 0.15% H2O2 in 24 mM of citric acid and 5 mM of the sodium phosphate buffer (pH5.2) with 0.5 mg/ml 2, […] (3-ethylbenzthiazole- 6-sulfonic acid, ABTS; Sigma, St. Louis, MO, USA) as the chromophore. […] Absorbance was read at 415 nm using an ELISA microplate reader (SPECTRAmax PLUS384; Molecular Devices, San Jose, CA, USA). The highest dilution at the cutoff absorbance 0.2 were determined as the antibody titer.
# This study was designed to monitor the kinetics of how quickly the antibody levels to MVF-PD-1(92-110) diminished after the dosing was stopped. […] We monitored the beagle dogs’ body weight closely during the immunization period ( Figure 3C ).
# beagle dogs [2] = test: Antibody isotyping of sera of immunized beagle dogs; assay type: in vivo, dog; conditions: dogs #1-#3
# cynomolgus monkeys = test: ELISA antibody titers, monkey study No.00213515; assay type: in vivo, Macaca fascicularis; conditions: monkey 1st set, 0.5, 2, 5 mg/dose, 2-week interval, ISA 720
# Experimental: The non-human primate studies were carried out by the Charles River Laboratories (Ashland, OH USA). All the cynomolgus monkeys (Macaca fascicularis of Chinese origin) were obtained from Charles River Laboratories (Houston, TX, USA). In brief, the animals were approximately 2–4 years old and at the body weight between 2.2 and 3.1 kg at the initial dosing. The animals were kept at the temperature between 19°C and 24°C, humidity 30%–70%, and with 12 h light and 12 h dark light cycle. The Good manufacturing practice (GMP)-manufactured vaccine was used in the non-human primate study. […] Similar to mouse and dog dosing preparation, after the emulsion was prepared, a drop test was performed on each time of dosing to confirm that the emulsion had been prepared properly. […] All the animals’ body weights were monitored weekly after receiving. […]
# Enzyme-linked immunosorbent assay (ELISA) was performed per our lab standard procedure. […] After washing, the antibody was detected using 50 μl of 0.15% H2O2 in 24 mM of citric acid and 5 mM of the sodium phosphate buffer (pH5.2) with 0.5 mg/ml 2, […] (3-ethylbenzthiazole- 6-sulfonic acid, ABTS; Sigma, St. Louis, MO, USA) as the chromophore. […] Absorbance was read at 415 nm using an ELISA microplate reader (SPECTRAmax PLUS384; Molecular Devices, San Jose, CA, USA). The highest dilution at the cutoff absorbance 0.2 were determined as the antibody titer. […]
sequence,measurement,setting,value
KLLSLIKGVIVHRLEGVEGPSLGAISLAPKAQIKESLRAEL [MVF-PD-1(92-110)],antibody titers in sera (words),beagle dogs [1],high titer antibody
same,antibody titers in sera (words),beagle dogs [1]; listed as PD-1(92),high immunogenicity
same,antibody titers after dosing stopped and after re-challenge,"beagle dogs [1]; beagle dogs, 4Y boost 6 months after primary immunization",dropped to very low levels in the absence of dosing but could be recovered if the dog was re-challenged with vaccine
same,IgA isotype percentage,beagle dogs [2],less than 2%
same,immunogenicity (summary),cynomolgus monkeys,high immunogenicity
